Columns and labels:
hIDE WT = target: T1, hIDE WT (Homo sapiens, UniProt P14735); assay: Small molecule-enzyme mutant complementation study, wild type; type: biochemical
T1 construct: The reported N-His6-tagged human IDE42-1019 construct; made in house; host or cells: E. coli Rosetta 2 (DE3) pLysS
Description: Protease assays with fluorogenic peptide substrates. […] All assay data points were obtained in duplicate.
Site-directed mutagenesis, expression, and purification of human IDE. The reported N-His6-tagged human IDE42-1019 construct was introduced in the expression plasmid pTrcHis-A (Invitrogen) using primers for uracil-specific excision reactions (USER) by Taq (NEB) and Pfu polymerases (PfuTurbo CX®, Agilent). The IDE gene was amplified with the primers 5′-[…]-dU-[…] and 5′-[…] G-dU-[…] (underlined sequences represent overhangs, and italics highlight the PCR priming sequence). Similarly, the pTrcHis-A vector was amplified for USER cloning with the primers 5′-[…] TGA-dU-[…] CCC and 5′-[…]-dU-[…]. Mutant IDE constructs were generated by amplifying the full vector construct with USER cloning primers introducing a mutant overhang (Table 5).
All PCR products were purified on microcentrifuge membrane columns (MinElute®, Qiagen) and quantified by UV absorbance (NanoDrop). Each fragment (0.2 pmol) was combined in a 10 μL reaction mixture containing 20 units DpnI (NEB), 0.75 units of USER mix (Endonuclease VIII and Uracil-DNA Glycosylase, NEB), 20 mM Tris-acetate, 50 mM potassium acetate, 10 mM magnesium acetate, 1 mM dithiothreitol at pH 7.9 (1× NEBuffer 4). The reactions were incubated at 37° C. for 45 min, followed by heating to 80° C. and slow cooling to 30° C. (0.2° C./s). The hybridized constructs were directly used for heat-shock transformation of chemically competent NEB turbo E. coli cells according to the manufacturer's instructions. Transformants were selected on carbenicillin LB agar, and isolated colonies were cultured overnight in 2 mL LB.
The plasmid was extracted using a microcentrifuge membrane column kit (Miniprep®, Qiagen), and the sequence of genes and vector junctions were confirmed by Sanger sequencing (Table 6). The plasmid constructs were transformed by heat-shock into chemically-competent expression strain Rosetta 2 (DE3) pLysS E. coli cells (EMD Millipore), and selected on carbenicillin/chloramphenicol LB agar. Cells transformed with IDE pTrcHis A constructs were cultured overnight at 37° C. in 2 XYT media (31 g in 1 L) containing 100 μg/mL ampicillin and 34 μg/mL chloramphenicol. Expression of His6-tagged IDE proteins was induced when the culture measured OD600 ˜0.6 by addition of isopropyl-β-D-1-thiogalactopyranoside (IPTG) to 1 mM final concentration, incubated overnight at 37° C., followed by centrifugation at 10,000 g for 30 min at 4° C.
Recombinant His6-tagged proteins were purified by Ni(II)-affinity chromatography (IMAC sepharose beads, GE Healthcare®) according to the manufacturer's instructions. The cell pellets were resuspended in pH 8.0 buffer containing 50 mM phosphate, 300 mM NaCl, 10 mM imidazole, 1% Triton X-100 and 1 mM tris(2-carboxyethyl)phosphine hydrochloride (TCEP), and were lysed by probe sonication for 4 min at 4° C., followed by clearing of cell debris by centrifugation at 10,000 g for 25 min at 4° C. The supernatant was incubated with Ni(II)-doped IMAC resin (2 mL) for 3 h at 4° C. The resin was washed twice with the cell resuspension/lysis buffer, and three times with pH 8.0 buffer containing 50 mM phosphate, 300 mM NaCl,50 mM imidazole and 1 mM TCEP. Elution was performed in 2 mL aliquots by raising the imidazole concentration to 250 mM and subsequently to 500 mM in the previous buffer. The fractions were combined and the buffer was exchanged to the recommended IDE buffer (R&D) using spin columns with 100 KDa molecular weight cut off membranes (Millipore). Protein yields were typically ˜10 μg/L, and >90% purity based on gel electrophoresis analysis (Coomassie stained).

C57BL/6J mice = assay: Insulin tolerance test, glucagon challenge and amylin challenge; type: in vivo, mouse
Method: Wild-type lean C57BL/6J and diet-induced obese (DIO) C57BL/6J age-matched male mice were purchased from Jackson Laboratories, and used at ages 14-16, and 24-26 weeks respectively (>20 weeks of high-fat diet for the DIO mice). GCGR^/ mice were bred from heterozygous mice and used between 11 and 17 weeks. […] Blood glucose was measured from tail nicks using AccuCheck (Aviva) meters.
Insulin Tolerance Test (ITT), Glucagon Challenge (GC) and Amylin Challenge (AC). For hormone challenges animals were fasted individually housed as described above. For ITT the fasting period was 6 h (7 am to 1 pm), and for glucagon and amylin challenges the fasting period was 14 h (8 pm-10 am). Inhibitor or vehicle alone was injected i.p. as previously described, 30 min prior to each hormone challenge. […] Glucagon (Eli Lilly) was injected s.c. 100 μg/kg formulated in 0.5% BSA sterile saline (5 mL/kg). Amylin (Bachem) was injected s.c. 250 μg/kg formulated in sterile saline (5 mL/kg). Blood glucose was measured at timepoints −45, 0, 15, 30, 45, 60 and 75 min with reference to the time of hormone injection, by microsampling from a tail nick as described above. Values are reported as mean±S.E.M. Statistics were performed using a two-tail Student's t-test, and significance levels shown in the figures are *p<0.05 versus vehicle control group or **p<0.01 versus vehicle control group.
Blood collection and plasma hormone measurements. Blood was collected in EDTA-coated tubes (BD Microtainer®) from trunk bleeding (˜500 μL) after CO2-euthanasia for all hormone assays. The plasma was immediately separated from red blood cells by centrifugation 10 min at 1800 g, aliquoted, frozen over dry ice and stored at −80° C. […] Values are reported as mean±S.E.M. Statistics were performed using a two-tail Student's t-test, and significance levels shown in the figures are *p<0.05 versus vehicle control group or **p<0.01 versus vehicle control group.

C57BL/6J lean mice = assay: CGRP-induced blood glucose excursions; type: in vivo, mouse; details: 80 mg/kg 30 min before CGRP
Method: Supraphysiological doses of CGRP induce blood glucose fluctuations via amylin receptors. […] Blood glucose was monitored at various points throughout the experiment, beginning at 45 minutes before and ending at 110 minutes after CGRP administration. The data was plotted (left panel) and the area under the curve for the 6bK-administered mice and the control mice was integrated.

T1 sequence (P14735 42-1019): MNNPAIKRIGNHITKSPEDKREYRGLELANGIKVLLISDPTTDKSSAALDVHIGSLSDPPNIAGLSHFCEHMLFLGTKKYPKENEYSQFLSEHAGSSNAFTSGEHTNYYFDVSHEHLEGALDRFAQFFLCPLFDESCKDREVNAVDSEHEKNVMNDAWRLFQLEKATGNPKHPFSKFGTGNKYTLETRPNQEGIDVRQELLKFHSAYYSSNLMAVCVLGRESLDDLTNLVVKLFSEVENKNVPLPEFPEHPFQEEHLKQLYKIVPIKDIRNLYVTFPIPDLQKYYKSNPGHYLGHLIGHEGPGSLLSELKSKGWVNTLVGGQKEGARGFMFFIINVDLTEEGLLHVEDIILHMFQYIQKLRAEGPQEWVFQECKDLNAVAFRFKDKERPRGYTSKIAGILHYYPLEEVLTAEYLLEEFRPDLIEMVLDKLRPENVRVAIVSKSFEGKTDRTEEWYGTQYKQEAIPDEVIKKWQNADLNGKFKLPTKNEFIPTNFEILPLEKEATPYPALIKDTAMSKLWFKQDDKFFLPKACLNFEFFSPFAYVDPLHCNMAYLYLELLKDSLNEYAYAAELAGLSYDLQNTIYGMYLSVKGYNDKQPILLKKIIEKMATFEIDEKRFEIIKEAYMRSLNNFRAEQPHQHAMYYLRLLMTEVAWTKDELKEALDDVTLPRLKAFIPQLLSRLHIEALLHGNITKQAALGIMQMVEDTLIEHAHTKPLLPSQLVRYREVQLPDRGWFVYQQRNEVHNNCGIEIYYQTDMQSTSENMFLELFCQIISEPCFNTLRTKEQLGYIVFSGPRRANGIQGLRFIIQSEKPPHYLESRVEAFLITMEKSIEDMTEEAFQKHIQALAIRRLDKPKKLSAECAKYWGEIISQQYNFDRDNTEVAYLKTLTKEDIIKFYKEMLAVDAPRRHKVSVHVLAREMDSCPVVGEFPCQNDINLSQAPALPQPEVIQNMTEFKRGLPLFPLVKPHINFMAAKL

| IC50 shift (hIDE WT; batch 1 (reference)) | IC50 shift (hIDE WT; batch 2 (reference)) | IC50 shift (hIDE WT; batch 3 (reference)) | Structure (SMILES) | adverse observations after high-dose insulin (C57BL/6J mice; 80 mg/kg i.p. plus insulin 1.0 U/kg, sacrificed at 75 min) | plasma level of the hormone injected at the end of the procedure (C57BL/6J mice; insulin, amylin or glucagon challenge, lean mice, vs control) | blood glucose response to amylin challenge (C57BL/6J mice; lean mice, 80 mg/kg, amylin s.c. 250 μg/kg, vs vehicle) | blood glucose response to glucagon challenge (C57BL/6J mice; lean mice, 80 mg/kg, glucagon s.c. 100 μg/kg, vs vehicle) | blood glucose response in insulin tolerance test (C57BL/6J mice; mice, 6bK 80 mg/kg i.p. 30 min before s.c. insulin, vs vehicle) | insulin levels in insulin tolerance test (C57BL/6J mice; mice, 6bK 80 mg/kg, vs vehicle controls, p<0.01) | hypoglycemic response to a high dose of insulin (C57BL/6J mice; non-fasted male C57BL/6J mice, 80 mg/kg i.p., i.p. insulin 1.0 U/kg) | CGRP-induced blood glucose excursions (C57BL/6J lean mice) |
| --- | --- | --- | --- | --- | --- | --- | --- | --- | --- | --- | --- |
| 1.0 fold | 1.0 fold | 1.0 fold | NC(=O)CCC1NC(=O)C=CC(=O)NC(C(N)=O)CCCCNC(=O)C(Cc2ccc(C(=O)c3ccccc3)cc2)NC(=O)C(CC2CCCCC2)NC1=O (centres unmarked) [Compound 6b] | – | – | – | – | – | – | – | – |
| – | – | – | NCCCC[C@@H]1NC(=O)/C=C/C(=O)N[C@H](C(N)=O)CCCCNC(=O)[C@@H](Cc2ccc(C(=O)c3ccccc3)cc2)NC(=O)[C@H](CC2CCCCC2)NC1=O [Compound 6bK] | lethargy and hypothermia | remained elevated | hyperglycemia | hyperglycemia | lower hypoglycemia | higher | Increased hypoglycemic response | augments |
